Source: patent publication US8022209B2, “Substituted nitrogen-containing heteroaryl derivatives useful as modulators of the histamine H4 receptor” (Janssen Pharmaceutica NV, priority 2007, dated 2011)
pKi: −log10 of the molar value.

Biological target: T1, human histamine H4 receptor (Homo sapiens, UniProt Q9H3N8)
T1 construct: expressed in transfected cells; host or cells: SK-N-MC cells or COS7 cells, transiently transfected with pH4R; cell membranes
Assay: Binding Assay on Recombinant Human Histamine H4 Receptor
Conditions: competition binding vs 3H-histamine (5 nM, KD 5 nM), membranes of SK-N-MC or COS7 cells transfected with human H4R; Cheng-Prusoff; average of results obtained
Experimental: Binding Assay on Recombinant Human Histamine H4 Receptor
SK-N-MC cells or COS7 cells were transiently transfected with pH4R and grown in 150 cm^2 tissue culture dishes. Cells were washed with saline solution, scraped with a cell scraper and collected by centrifugation (1000 rpm, 5 min). Cell membranes were prepared by homogenization of the cell pellet in 20 mM Tris-HCl with a polytron tissue homogenizer for 10 sec at high speed. Homogenate was centrifuged at 1000 rpm for 5 min at 4° C. The supernatant was then collected and centrifuged at 20,000×g for 25 min at 4° C. The final pellet was resuspended in 50 mM Tris-HCl. Cell membranes were incubated with ^3H-histamine (5-70 nM) in the presence or absence of excess histamine (10,000 nM). Incubation occurred at room temperature for 45 min. Membranes were harvested by rapid filtration over Whatman GF/C filters and washed 4 times with ice-cold 50 mM Tris HCl. Filters were then dried, mixed with scintillant and counted for radioactivity. SK-N-MC or COS7 cells expressing human histamine H4 receptor were used to measure the affinity of binding of other compounds and their ability to displace ^3H-ligand binding by incubating the above-described reaction in the presence of various concentrations of inhibitor or compound to be tested. For competition binding studies using ^3H-histamine, Ki values were calculated, based on an experimentally determined KD value of 5 nM and a ligand concentration of 5 nM, according to Y. C.

| pKi | Structure (SMILES) |
| --- | --- |
| 7.10 | Cc1ccsc1-c1ncnc(N2CCN(C)CC2)n1 [compound 136] |
| 7.11 | CN1CCN(c2ncnc(-c3cc(F)cc(F)c3)n2)CC1 [compound 137, 2-(3,5-Difluoro-phenyl)-4-(4-methyl-piperazin-1-yl)-[1,3,5]triazine] |
| 7.00 | CN1CCN(c2ncnc(-c3ccc(F)cc3Cl)n2)CC1 [compound 138, 2-(2-Chloro-4-fluoro-phenyl)-4-(4-methyl-piperazin-1-yl)-[1,3,5]triazine] |
| 6.07 | CN1CCN(c2ncnc(-c3ccccn3)n2)CC1 [compound 139, 2-(4-Methyl-piperazin-1-yl)-4-pyridin-2-yl-[1,3,5]triazine] |
| 7.28 | Cc1ccsc1-c1ncnc(N2CCN(C)CC2)n1 [compound 140, 2-(4-Methyl-piperazin-1-yl)-4-(3-methyl-thiophen-2-yl)-[1,3,5]triazine] |
| 6.71 | CN1CCN(c2ncnc(-c3cc(Cl)sc3Cl)n2)CC1 [compound 143, 2-(2,5-Dichloro-thiophen-3-yl)-4-(4-methyl-piperazin-1-yl)-[1,3,5]triazine] |
| 6.46 | CN1CCN(c2ncnc(-c3csc4ccccc34)n2)CC1 [compound 144, 2-Benzo[b]thiophen-3-yl-4-(4-methyl-piperazin-1-yl)-[1,3,5]triazine] |
| 6.57 | CN1CCN(c2ccnc(-c3ccc(-c4cccs4)s3)c2)CC1 [compound 145] |
| 6.71 | Cc1nc(-c2cc(F)c(F)c(F)c2)nc(N2CCN(C)CC2)n1 [compound 147, 2-Methyl-4-(4-methyl-piperazin-1-yl)-6-(3,4,5-trifluoro-phenyl)-[1,3,5]triazine] |
| 6.97 | CN1CCN(c2ccnc(-c3sccc3Cl)c2)CC1 [compound 148] |
| 6.86 | CN1CCN(c2ncnc(-c3cc(Cl)cs3)n2)CC1 [compound 151, 2-(4-Chloro-thiophen-2-yl)-4-(4-methyl-piperazin-1-yl)-[1,3,5]triazine] |
